Source: paper PMC3280214, “Structure Based Discovery of Small Molecules to Regulate the Activity of Human Insulin Degrading Enzyme” (PLoS ONE, 2012)
pEC50: −log10 of the molar value. Several values for one entry are separate records, joined by “and”; a condition that tells them apart may be missing. Equal entries are not always repeated. Entries after “also recorded” stand apart in the source; their conditions may differ.

Target: T1, IDE (Homo sapiens, UniProt P14735)
T1 construct: made in house; host or cells: E. coli BL21
T1 sequence (P14735 1-1019): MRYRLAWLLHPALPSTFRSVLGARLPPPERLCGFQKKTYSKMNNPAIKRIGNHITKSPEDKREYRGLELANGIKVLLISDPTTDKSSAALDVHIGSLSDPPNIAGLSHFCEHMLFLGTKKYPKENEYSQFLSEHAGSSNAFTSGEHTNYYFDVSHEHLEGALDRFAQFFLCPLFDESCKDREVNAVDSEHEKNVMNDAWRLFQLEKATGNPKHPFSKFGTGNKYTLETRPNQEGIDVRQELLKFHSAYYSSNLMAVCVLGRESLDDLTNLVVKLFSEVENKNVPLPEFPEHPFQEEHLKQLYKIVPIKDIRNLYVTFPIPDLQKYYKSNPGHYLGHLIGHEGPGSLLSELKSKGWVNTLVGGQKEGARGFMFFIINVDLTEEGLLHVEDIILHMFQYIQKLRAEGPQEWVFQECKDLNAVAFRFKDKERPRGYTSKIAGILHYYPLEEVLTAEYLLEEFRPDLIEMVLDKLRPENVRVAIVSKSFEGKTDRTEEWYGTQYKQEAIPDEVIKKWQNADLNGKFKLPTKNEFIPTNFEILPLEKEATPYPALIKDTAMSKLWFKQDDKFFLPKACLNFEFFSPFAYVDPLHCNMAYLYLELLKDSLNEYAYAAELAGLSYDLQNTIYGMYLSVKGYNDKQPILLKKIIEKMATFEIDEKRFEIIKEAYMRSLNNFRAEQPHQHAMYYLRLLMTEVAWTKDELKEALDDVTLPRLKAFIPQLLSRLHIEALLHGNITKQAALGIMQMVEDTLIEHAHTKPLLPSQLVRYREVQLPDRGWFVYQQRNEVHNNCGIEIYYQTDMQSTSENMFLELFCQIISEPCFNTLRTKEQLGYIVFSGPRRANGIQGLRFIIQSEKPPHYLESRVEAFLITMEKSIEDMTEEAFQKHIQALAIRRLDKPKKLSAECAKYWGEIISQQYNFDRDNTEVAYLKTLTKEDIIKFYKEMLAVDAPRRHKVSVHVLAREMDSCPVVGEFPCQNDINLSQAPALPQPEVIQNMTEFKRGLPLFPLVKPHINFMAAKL
Assay: Degradation of FITC-insulin-mAb by IDE
Assay type: biochemical
Details: for increase of IDE-mediated insulin (FITC-insulin-mAb) degradation: 20 µM compound; for effect of ATP on IDE activity for insulin degradation in presence of compound: 0.1 mM ATP; for pEC50: dose response, Sigmoidal Hill 4 parameter fit; for increase of initial rate of proteolysis of FITC-insulin bound with antibody: wild type IDE, presence vs absence of compound
Method: The 10 compounds given in Table 1 were subjected to further characterization and their effect was measured on the proteolytic activity of IDE using different substrates. Initially, activity assays were carried out at fixed 20 µM concentrations for all molecules to identify the effect of those compounds on IDE activity. IDE activity was quantified by monitoring the change in fluorescence for the proteolysis of fluorogenic-substrate V, FITC- insulin-bound antibody, and FAβB by recombinant human IDE purified from E.coli BL21 [6], [18], [19]. […] Also, D6 increased the amyloid-β degradation by 20% (Fig. S1C). Further, D10 enhanced IDE-mediated FITC-insulin-mAb and substrate V degradation by 290% and 65%, respectively (Fig. S1A, B). Next, an EC50 value of each molecule that enhanced IDE activity was determined with a dose response assay, where specific activity of IDE was measured with different concentrations of the lead compounds and then the plot was fit to Sigmoidal Hill-4 parameter equation. […] EC50 value for D3 on insulin degradation was approximately measured as 20 µM (Fig. S2C), whereas EC50 value for D6 on amyloid-β degradation was 2 µM (Fig. S2D). […] Among all these four compounds, D10 seems to be the potent activator of IDE, when proteolysis of insulin is considered.
In order to measure degradation of insulin by IDE, FITC-insulin is bound to the monoclonal mouse anti-human-insulin, so that the rotation of free FITC and possible changes in fluorescence polarization could be prevented. We performed enzymatic assays, using only FITC-insulin bound antibody as a background fluorescence and checked the effects of compounds on the cleavage of FITC-insulin-mAb. FITC-insulin is bound to mouse anti human insulin antibody in PBS at 37°C for 1 hour, which is higher than the optimum time required to obtain maximum binding of insulin-FITC conjugate and mAb. It is observed that 400 nM mAb completely binds to 50 nM FITC-insulin (Fig. S7). Since molecular weights of FITC-insulin and mAb are about 5.8 kDa and 60 kDa respectively, we observed very slight shift in the gel as expected. In figure S7, it is observed in lane 4 that 50 nM (100 ng) insulin is completely bound to 400 nM mAb in lane 4 (Fig. S7). […] The binding between insulin and mAb is shown by performing (%5 and %15) native polyacrylamide gel electrophoresis.
The utility of these novel compounds were tested on degradation of insulin by IDE. First insulin was labeled with FITC as described previously. Briefly, 500 mg insulin dissolved in 1.5 ml of 0.1 M Na-carbonate, at pH 7, and 0.2 mM EDTA. Then, 4.5 mg FITC was dissolved in 200 µl acetone and was added dropwise to previous solution at room temperature for 20 h ([FITC]∶[insulin], 3∶1). Finally, unreacted FITC was removed by dialysis and the FITC-insulin was stored at −20°C. The proteolysis of insulin by IDE was monitored by measuring the changes in fluorescence, where the reaction was carried out with 100 nM of FITC- insulin-mAb and IDE (80 ng) in 100 µl KH2PO4 buffer at a pH of 7.3. Reaction was carried out at 37°C for different time intervals (0–4 hours). The increase in fluorescence was monitored by using Fluoroskan Ascent FL microplate reader (Thermo).
The effect of the lead compounds on the initial rate of proteolysis of IDE was determined by measurement in fluorescence with time both in the presence and absence of the lead compounds. The kinetic data for IDE-mediated insulin, substrate V and amyloid-β degradation were plotted and fitted using SigmaPlot software (Sigmoidal, Hill, 4 parameter). For the initial rate calculations, kinetic data were fitted using SigmaPlot software (Hyperbola; Single Rectangular I, 3 Parameter).

Row | SMILES | increase of IDE-mediated insulin (FITC-insulin-mAb) degradation | effect of ATP on IDE activity for insulin degradation in presence of compound | pEC50 | increase of initial rate of proteolysis of FITC-insulin bound with antibody [fold]
1 | COc1ccc(C2C(C(=O)Nc3ccccc3)=C(C)N=c3sc(=Cc4cn(C)nc4C)c(=O)n32)cc1 (stereo not drawn) [Compound D3] | 72% | did not change significantly; also recorded: no effect | ~4.70 | ~7.5
2 | Nc1c(C(=O)Nc2ccccc2F)c2ccccn2c1C(=O)c1ccc2c(c1)CCCC2 [Compound D4] | 60% | did not change significantly; also recorded: no effect | 4.89 | ~12
3 | Cc1nn(-c2ccccc2)c2nc(-c3cccc([N+](=O)[O-])c3)n3c4ccccc4nc3c2c1=O [Compound D10] | 290% and ~275% | did not change significantly; also recorded: no effect | 4.92 | ~49
